In patent US20060194969A1, “4-Substituted benzimidazoles and their uses as inhibitors of gastric secretion” (priority 2002, published 2006):

melting point | SMILES
126 to 127 °C | CO[C@@H]1Cc2ccccc2[C@H]1Oc1cc(C(=O)N(C)C)cc2c1nc(C)n2C.O=C(O)C(=O)O (relative stereo) [Example 12, 4-(trans-2,3-Dihydro-2-methoxy-1-indenyloxy)-6-(N,N-dimethylaminocarbonyl)-1,2-dimethyl-1H-benzimidazole Oxalate]
306 °C | Cc1nc2c(O[C@@H]3c4ccccc4C[C@H]3O)cc(C(=O)O)cc2n1C (relative stereo) [Example 16, 4-(trans-2,3-Dihydro-2-hydroxy-1-indenyloxy)-1,2-dimethyl-1H-benzimidazole-6-carboxylic Acid]
184 °C | CCOC(=O)c1cc(O[C@@H]2c3c(C)ccc(C)c3C[C@H]2O)c2nc(C)n(C)c2c1 (relative stereo) [Example 20, Ethyl 4-(trans-2,3-dihydro-2-hydroxy-4,7-dimethyl-1-indenyloxy)-1,2-dimethyl-1H-benzimidazole-6-carboxylate]
134 °C | Cc1ccc(C)c2c1C[C@@H](O)[C@@H]2Oc1cc(C(=O)N(C)C)cc2c1nc(C)n2C (relative stereo) [Example 22, 4-(trans-2,3-Dihydro-2-hydroxy-4,7-dimethyl-1-indenyloxy)-6-(N,N-dimethylaminocarbonyl)-1,2-dimethyl-1H-benzimidazole]
141 °C | CCN(CCOC)C(=O)c1cc(O[C@@H]2c3ccccc3C[C@H]2O)c2nc(C)n(C)c2c1.O=C(O)C(=O)O (relative stereo) [Example 24, 4-(trans-2,3-Dihydro-2-hydroxy-1-indenyloxy)-6-[N-(2-methoxyethyl)-N-ethyl-amino-carbonyl]-1,2-dimethyl-1H-benzimidazole Oxalate]
148 to 149 °C | Cc1nc2c(O[C@@H]3c4ccccc4C[C@H]3O)cc(C(=O)NC3CC3)cc2n1C (relative stereo) [Example 26, 6-(Cyclopropylaminocarbonyl)-4-(trans-2,3-dihydro-2-hydroxy-1-indenyloxy)-1,2-dimethyl-1H-benzimidazole]
219 to 221 °C | Cc1nc2c(N[C@@H]3c4ccccc4C[C@H]3O)cc(C(=O)N(C)C)cc2n1C (relative stereo) [Example 51, 4-(trans-2,3-Dihydro-2-hydroxy-1-indenylamino)-6-(N,N-dimethylaminocarbonyl)-1,2-dimethyl-1H-benzimidazole]
132 to 134 °C | Cn1c(C2CC2)nc2c(O[C@@H]3c4ccccc4C[C@H]3O)cc(C(=O)O)cc21 (relative stereo) [Example 59, 2-Cyclopropyl-4-(trans-2,3-dihydro-2-hydroxy-1-indenyloxy)-1-methyl-1H-benzimidazole-6-carboxylic acid]
157 °C | CCc1cccc(C)c1COc1cc(C(=O)OC)cc2c1nc(C)n2C [Example 1, Methyl 4-(2-ethyl-6-methyl-benzyloxy)-1,2-dimethyl-1H-benzimidazole-6-carboxylate]
165 to 169 °C | COC(=O)c1cc(OCc2c(C)cccc2C)c2nc(C)n(C)c2c1 [Example 3, Methyl 4-(2,6-dimethyl-benzyloxy)-1,2-dimethyl-1H-benzimidazole-6-carboxylate]
285 to 286 °C | Cc1cccc(C)c1COc1cc(C(=O)O)cc2c1nc(C)n2C [Example 4, 4-(2,6-Dimethyl-benzyloxy)-1,2-dimethyl-1H-benzimidazole-6-carboxylic Acid]
213 to 214 °C | Cc1nc2c(OCc3ccccc3)cc(CO)cc2n1C [Example 5, 4-Benzyloxy-6-hydroxymethyl-1,2-dimethyl-1H-benzimidazole]
113 °C | COCc1cc(OCc2ccccc2)c2nc(C)n(C)c2c1 [Example 6, 4-Benzyloxy-6-methoxymethyl-1,2-dimethyl-1H-benzimidazole]
159 to 160 °C | Cc1nc2c(OCc3ccccc3)cc(C(=O)N(C)C)cc2n1C [Example 7, 4-Benzyloxy-6-(N,N-dimethylaminocarbonyl)-1,2-dimethyl-1H-benzimidazole]
